According to ChEMBL document CHEMBL5543072, “Discovery of a novel lead characterized by a stilbene-extended scaffold against sepsis as soluble epoxide hydrolase inhibitors” (Eur J Med Chem, 2024):

How the values were obtained:
Mus musculus [1] = assay: Protection against LPS-induced sepsis in C57BL/6J mouse model assessed as survival rate at 5 mg/kg, iv measured after 48 hrs relative to control; format: functional
Mus musculus [2] = assay: Protection against LPS-induced sepsis in C57BL/6J mouse model assessed as survival rate at 0.05 mg/kg, iv measured after 24 hrs relative to control; format: functional
Mus musculus [3] = assay: Protection against LPS-induced sepsis in C57BL/6J mouse model assessed as survival rate at 30 mg/kg, iv measured upto 56 hrs relative to control; format: functional
Mus musculus [4] = assay: Anti-inflammatory activity in LPS-induced C57BL/6J mouse model of sepsis assessed as TNF-alpha in liver at 5 mg/kg, ip preadministered with compound for 24 hrs followed by LPS administration and measured after 3 hrs by ELISA (reference value: 298 pg/ml); format: functional; conditions: time 27 hrs
[5] = Cmax in C57BL/6J mouse blood at 5 mg/kg, ip measured after 24 hrs by LC-MS/MS analysis; format: ADME, organism-based
[6] = AUC (0 to 24 hrs)in C57BL/6J mouse blood at 5 mg/kg, ip measured after 24 hrs by LC-MS/MS analysis; format: ADME, organism-based
[7] = Cytotoxicity in HEK293T cells assessed as cell viability at 5 uM incubated for 48 hrs by CCK8 assay relative to control; format: toxicity, cell-based, HEK-293T; conditions: human, read-out: Activity
[8] = target: T1, Bifunctional epoxide hydrolase 2 (Mus musculus, UniProt P34914)
T1 sequence (P34914 whole entry): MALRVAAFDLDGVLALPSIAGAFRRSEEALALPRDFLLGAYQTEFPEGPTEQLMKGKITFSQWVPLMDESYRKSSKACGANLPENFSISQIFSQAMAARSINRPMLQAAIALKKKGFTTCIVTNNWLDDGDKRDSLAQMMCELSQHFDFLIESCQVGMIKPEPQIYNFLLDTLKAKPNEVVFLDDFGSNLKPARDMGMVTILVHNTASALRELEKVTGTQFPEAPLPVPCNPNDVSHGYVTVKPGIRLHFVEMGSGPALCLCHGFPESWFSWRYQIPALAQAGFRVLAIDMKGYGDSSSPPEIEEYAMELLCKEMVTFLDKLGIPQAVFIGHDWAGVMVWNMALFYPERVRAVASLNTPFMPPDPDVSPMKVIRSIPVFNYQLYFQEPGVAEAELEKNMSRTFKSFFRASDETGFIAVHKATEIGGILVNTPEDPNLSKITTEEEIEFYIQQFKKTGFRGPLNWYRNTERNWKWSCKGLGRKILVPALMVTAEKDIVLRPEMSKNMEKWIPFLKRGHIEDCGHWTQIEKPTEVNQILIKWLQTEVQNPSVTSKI

in vivo = conditions: C57BL/6J, mouse, other tissue, ip, 5 mg/kg
Description: Ratio of AUC (0 to 24 hrs)in C57BL/6J mouse liver to blood at 5 mg/kg, ip measured after 24 hrs by LC-MS/MS analysis

## O=C(Cc1ccccn1)Nc1cccc(/C=C/c2ccc(NC(=O)NCC3CCOCC3)cc2)c1
Mus musculus [1]
  survival at 5 mg/kg: 40%
Mus musculus [2]
  survival at 0.05 mg/kg: 30%
Mus musculus [3]
  survival at 30 mg/kg: > 50%
Mus musculus [4]
  Activity: 193 pg/mL
[5]
  Cmax: 330 ng/mL
[6]
  AUC(0-t) at 24 h: 122 ng·h/mL
[7]
  viability at 48 h, 5 µM: 82.9%
[8]
  IC50: 4.02 nM
In vivo
  Kp at 24 h: 175
